# Patent US9758492B2, “IDO inhibitors” (Bristol-Myers Squibb Company, priority 2013, dated 2017)
# Target: IDO (Homo sapiens, UniProt P14902)
# Assay: LLE_IDO_ABS_DR (IDO assay)
# Sequence of IDO (P14902 whole entry): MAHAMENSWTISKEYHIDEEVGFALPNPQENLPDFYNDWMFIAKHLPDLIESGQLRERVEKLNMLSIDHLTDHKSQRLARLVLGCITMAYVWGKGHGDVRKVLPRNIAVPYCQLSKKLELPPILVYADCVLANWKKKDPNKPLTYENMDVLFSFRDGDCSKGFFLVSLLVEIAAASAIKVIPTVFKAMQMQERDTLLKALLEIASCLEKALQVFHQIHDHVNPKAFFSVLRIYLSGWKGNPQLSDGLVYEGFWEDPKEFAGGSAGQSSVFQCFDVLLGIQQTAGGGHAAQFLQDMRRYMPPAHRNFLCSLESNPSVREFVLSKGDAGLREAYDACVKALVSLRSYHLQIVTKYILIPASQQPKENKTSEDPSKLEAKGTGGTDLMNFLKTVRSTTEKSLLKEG
row,SMILES,IC50 [nM]
1,"CC(C)CN(c1ccc(-c2ccccc2-c2nnn[nH]2)cc1NC(=O)Nc1ccccc1F)C1CCCCC1 [Example 121, 1-(4-(cyclohexyl(isobutyl)amino)-2′-(1H-tetrazol-5-yl)biphenyl-3-yl)-3-(2-fluorophenyl)urea]",2.59
2,"COc1ccc(C(=O)O)c(-c2ccc(N(CC(C)C)CC(C)C)c(NC(=O)Nc3ccc(C)cc3)c2)c1 [Example 128, 4′-(diisobutylamino)-5-methoxy-3′-(3-p-tolylureido)biphenyl-2-carboxylic acid]",390
3,"Cc1ccc(NC(=O)Nc2cc(-c3ccccc3-c3nnn[nH]3)ccc2N(CCC(F)(F)F)Cc2ccccn2)cc1 [Example 506, 1-(4-((pyridin-2-ylmethyl)(3,3,3-trifluoropropyl)amino)-2′-(1H-tetrazol-5-yl)-[1,1′-biphenyl]-3-yl)-3-(p-tolyl)urea]",40
4,"Cc1ccc(NC(=O)Nc2cc(-c3ccccc3-c3nnn[nH]3)ccc2N(CCC(F)(F)F)Cc2ccc(Cl)cc2Cl)cc1 [Example 505, 1-(4-((2,4-Dichlorobenzyl)(3,3,3-trifluoropropyl)amino)-2′-(1H-tetrazol-5-yl)-[1,1′-biphenyl]-3-yl)-3-(p-tolyl)urea]",40
5,"CC(C)CN(c1ccc(-c2ccccc2C(=O)O)cc1NC(=O)Nc1ccccc1F)C1CCC(F)(F)CC1 [Example 510, 4′-((4,4-Difluorocyclohexyl)(isobutyl)amino)-3′-(3-(2-fluorophenyl)ureido)-[1,1′-biphenyl]-2-carboxylic acid]",1.38
6,"Cc1ccc(NC(=O)Nc2cc(-c3ccccc3C(=O)O)ccc2N(CC(C)C)CC(C)CC(F)(F)F)cc1 (stereo not shown) [Example 28, 4′-(Isobutyl(4,4,4-trifluoro-2-methylbutyl)amino)-3′-(3-(p-tolyl)ureido)-[1,1′-biphenyl]-2-carboxylic acid]",10
7,"COc1cc(NC(=O)Nc2cc(-c3ccccc3-c3nnn[nH]3)ccc2N(CC(C)C)CC(C)C)ccc1F [Example 252, 1-(4-(diisobutylamino)-2′-(1H-tetrazol-5-yl)-[1,1′-biphenyl]-3-yl)-3-(4-fluoro-3-methoxyphenyl)urea]",1230
8,"CC(C)CN(CC(C)C)c1ccc(-c2ccccc2-c2nn[nH]n2)cc1NC(=O)Nc1c(F)cccc1F [Example 283, 1-(2,6-difluorophenyl)-3-(4-(diisobutylamino)-2′-(2H-tetrazol-5-yl)-[1,1′-biphenyl]-3-yl)urea]",10
9,"CCN(c1ccc(-c2ccccc2C(=O)O)cc1NC(=O)Nc1ccc(C)cc1)C1CCCC1 [Example 76, 4′-(cyclopentyl(ethyl)amino)-3′-(3-p-tolylureido)biphenyl-2-carboxylic acid]",20
10,"O=C(Nc1ccc(C2CC2)cc1)Nc1cc(-c2ccccc2-c2nnn[nH]2)ccc1N(CCC(F)(F)F)Cc1ccccn1 [Example 304, 1-(4-cyclopropylphenyl)-3-(4-((pyridin-2-ylmethyl)(3,3,3-trifluoropropyl)amino)-2′-(1H-tetrazol-5-yl)-[1,1′-biphenyl]-3-yl)urea]",70
11,"Cc1ccc(NC(=O)Nc2cc(-c3ccccc3-c3nnn[nH]3)c(F)cc2N(CC(C)C)C2CCCCC2)cc1 [Example 227, 1-(4-(cyclohexyl(isobutyl)ami-no)-6-fluoro-2′-(1H-tetrazol-5-yl)biphenyl-3-yl)-3-p-tolylurea]",2.91
12,"Cc1ccc(NC(=O)Nc2cc(-c3ccccc3-c3nnn[nH]3)ccc2N(CC2CC2)C2CCCCC2)cc1 [Example 82, 1-(4-(cyclohexyl (cyclopropylmethyl)amino)-2′-(1H-tetrazol-5-yl)biphenyl-3-yl)-3-p-tolylurea]",3.8
13,"O=C(Nc1ccc(OC(F)(F)F)cc1)Nc1cc(-c2ccccc2-c2nnn[nH]2)ccc1N(CCC(F)(F)F)Cc1ccccn1 [Example 343, 1-(4-((pyridin-2-ylmethyl)(3,3,3-trifluoropropyl)amino)-2′-(1H-tetrazol-5-yl)-[1,1′-biphenyl]-3-yl)-3-(4-(trifluoromethoxy)phenyl)urea]",230
14,"Cc1ccc(NC(=O)Nc2cc(-c3ccccc3C(=O)O)ccc2N(CC(C)C)C2CCCCC2)cc1 [Example 119, 4′-(cyclohexyl (isobutyl)amino)-3′-(3-p-tolylureido)biphenyl-2-carboxylic acid]",5.19
15,"Cc1ccc(NC(=O)Nc2cc(-c3ccccc3-c3nnn[nH]3)ccc2N2CCC(F)(F)C2)cc1 [Example 315, 1-(4-(3,3-difluoropyrrolidin-1-yl)-2′-(1H-tetrazol-5-yl)-[1,1′-biphenyl]-3-yl)-3-(p-tolyl)urea]",7770
16,"C#CCN(CC(C)C)c1ccc(-c2ccccc2-c2nnn[nH]2)cc1NC(=O)Nc1ccc(C)cc1 [Example 24, 1-(4-(Isobutyl(prop-2-yn-1-yl)amino)-2′-(1H-tetrazol-5-yl)-[1,1′-biphenyl]-3-yl)-3-(p-tolyl)urea]",10
17,"[2H]C([2H])(C(C)C)N(c1ccc(-c2ccccc2-c2nnn[nH]2)cc1NC(=O)Nc1ccc(C)cc1)C1CCCCC1 [Example 29, 1-(4-(Cyclohexyl(1,1-dideutero-2-methylpropyl)amino)-2′-(1H-tetrazol-5-yl)biphenyl-3-yl)-3-p-tolylurea]",4.76
18,"C#Cc1cccc(NC(=O)Nc2cc(-c3ccccc3-c3nnn[nH]3)ccc2N(CC(C)C)CC(C)C)c1 [Example 241, 1-(4-(diisobutylamino)-2′-(1H-tetrazol-5-yl)-[1,1′-biphenyl]-3-yl)-3-(3-ethynylphenyl)urea]",20
19,"Cc1ccc(NC(=O)Nc2cc(-c3ccoc3C(=O)O)ccc2N(CC(C)C)CC(C)C)cc1 [Example 152, 3-(4-(diisobutylamino)-3-(3-p-tolylureido)phenyl)furan-2-carboxylic acid]",770
20,"Cc1ccc(NC(=O)Nc2cc(-c3ccccc3-c3nnn[nH]3)ccc2N(C)c2ccccc2C(C)(C)C)cc1 [Example 210, 1-(4-((2-(tert-butyl)phenyl)(methyl)amino)-2′-(1H-tetrazol-5-yl)-[1,1′-biphenyl]-3-yl)-3-(p-tolyl)urea]",210
21,"Cc1ccc(NC(=O)Nc2cc(-c3ccccc3-c3nnn[nH]3)ccc2N(CCC(F)(F)F)Cc2ccc(F)cc2)cc1 [Example 325, 1-(4-((4-fluorobenzyl)(3,3,3-trifluoropropyl)amino)-2′-(1H-tetrazol-5-yl)-[1,1′-biphenyl]-3-yl)-3-(p-tolyl)urea]",90
22,"O=C(Nc1ccc(C2CC2)c(F)c1)Nc1cc(-c2ccccc2-c2nnn[nH]2)ccc1N(CCCC(F)(F)F)Cc1ccc(Cl)cc1 [Example 297, 1-(4-((4-chlorobenzyl)(4,4,4-trifluorobutyl)amino)-2′-(1H-tetrazol-5-yl)-[1,1′-biphenyl]-3-yl)-3-(4-cyclopropyl-3-fluorophenyl)urea]",10
23,"CC(C)CN(CC(C)C)c1ccc(-c2ccccc2-c2nnn[nH]2)cc1NC(=O)Nc1ccccn1 [Example 238, 1-(4-(Diisobutylamino)-2′-(1H-tetrazol-5-yl)-[1,1′-biphenyl]-3-yl)-3-(pyridin-2-yl)urea]",750
24,"Cc1ccc(NC(=O)Nc2cc(-c3ccncc3C(=O)O)ccc2N(CC(C)C)CC(C)C)cc1 [Example 159, 4-(4-(diisobutylamino)-3-(3-p-tolylureido)phenyl) nicotinic acid]",980
25,"CC(C)CN(c1ccc(-c2cc(F)ccc2C(=O)O)cc1NC(=O)Nc1ccccc1F)C(C)C [Example 155, 5-fluoro-3′-(3-(2-fluorophenyl)ureido)-4′-(isobutyl(isopropyl)amino)biphenyl-2-carboxylic acid]",40
